According to patent US8293909B2, “Compounds for the treatment of hepatitis C” (Bristol-Myers Squibb Company, priority 2008, dated 2012):

Tests used:
[1] = molecular target: T1, HCV NS5B RdRp genotype 1b (Hepatitis C virus genotype 1b, UniProt Q9WMX2); assay: HCV NS5B RdRp enzyme assay (standard / modified); assay type: biochemical; details: Table 1; HCV NS5B genotype 1b
T1 construct: The protein was expressed with an 18 amino acid C-terminal truncation to enhance the solubility; made in house; host or cells: E. coli BL21(DE3), pET21a vector
T1 sequence (Q9WMX2 2420-2992): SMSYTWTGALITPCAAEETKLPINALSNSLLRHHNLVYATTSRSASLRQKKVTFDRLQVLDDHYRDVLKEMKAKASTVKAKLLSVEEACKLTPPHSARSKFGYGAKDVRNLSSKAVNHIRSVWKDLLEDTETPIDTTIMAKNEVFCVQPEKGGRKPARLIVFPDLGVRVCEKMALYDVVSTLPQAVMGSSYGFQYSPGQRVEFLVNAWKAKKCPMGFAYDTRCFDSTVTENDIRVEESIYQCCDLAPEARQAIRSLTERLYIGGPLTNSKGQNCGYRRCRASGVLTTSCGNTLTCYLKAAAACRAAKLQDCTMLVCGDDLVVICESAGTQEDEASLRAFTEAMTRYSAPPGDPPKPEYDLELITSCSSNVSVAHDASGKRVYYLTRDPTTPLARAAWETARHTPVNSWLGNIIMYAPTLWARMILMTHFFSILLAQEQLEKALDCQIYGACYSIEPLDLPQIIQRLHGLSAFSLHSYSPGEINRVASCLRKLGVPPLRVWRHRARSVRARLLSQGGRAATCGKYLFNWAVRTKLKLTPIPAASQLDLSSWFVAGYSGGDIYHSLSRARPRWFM
Experimental: HCV NS5B RdRp cloning, expression, and purification. The cDNA encoding the NS5B protein of HCV, genotype 1b, was cloned into the pET21a expression vector. The protein was expressed with an 18 amino acid C-terminal truncation to enhance the solubility. The E. coli competent cell line BL21(DE3) was used for expression of the protein. Cultures were grown at 37° C. for ˜4 hours until the cultures reached an optical density of 2.0 at 600 nm. The cultures were cooled to 20° C. and induced with 1 mM IPTG. Fresh ampicillin was added to a final concentration of 50 μg/ml and the cells were grown overnight at 20° C.
Cell pellets (3 L) were lysed for purification to yield 15-24 mgs of purified NS5B. The lysis buffer consisted of 20 mM Tris-HCl, pH 7.4, 500 mM NaCl, 0.5% triton X-100, 1 mM DTT, 1 mM EDTA, 20% glycerol, 0.5 mg/ml lysozyme, 10 mM MgCl2, 15 ug/ml deoxyribonuclease I, and Complete™ protease inhibitor tablets (Roche). After addition of the lysis buffer, frozen cell pellets were resuspended using a tissue homogenizer. To reduce the viscosity of the sample, aliquots of the lysate were sonicated on ice using a microtip attached to a Branson sonicator. The sonicated lysate was centrifuged at 100,000×g for 1 hr at 4° C. and filtered through a 0.2 μm filter unit (Corning).
The protein was purified using three sequential chromatography steps: Heparin sepharose CL-6B, polyU sepharose 4B, and Hitrap SP sepharose (Pharmacia). The chromatography buffers were identical to the lysis buffer but contained no lysozyme, deoxyribonuclease I, MgCl2 or protease inhibitor and the NaCl concentration of the buffer was adjusted according to the requirements for charging the protein onto the column. Each column was eluted with a NaCl gradient which varied in length from 5-50 column volumes depending on the column type. After the final chromatography step, the resulting purity of the enzyme is >90% based on SDS-PAGE analysis. The enzyme was aliquoted and stored at −80° C.
Standard HCV NS5B RdRp enzyme assay. HCV RdRp genotype 1b assays were run in a final volume of 60 μl in 96 well plates (Costar 3912). The assay buffer is composed of 20 mM Hepes, pH 7.5, 2.5 mM KCl, 2.5 mM MgCl2, 1 mM DTT, 1.6 U RNAse inhibitor (Promega N2515), 0.1 mg/ml BSA (Promega R3961), and 2% glycerol. All compounds were serially diluted (3-fold) in DMSO and diluted further in water such that the final concentration of DMSO in the assay was 2%. HCV RdRp genotype 1b enzyme was used at a final concentration of 28 nM. A polyA template was used at 6 nM, and a biotinylated oligo-dT12 primer was used at 180 nM final concentration. Template was obtained commercially (Amersham 27-4110). Biotinylated primer was prepared by Sigma Genosys. 3H-UTP was used at 0.6 μCi (0.29 μM total UTP). Reactions were initiated by the addition of enzyme, incubated at 30° C. for 60 min, and stopped by adding 25 μl of 50 mM EDTA containing SPA beads (4 μg/μl, Amersham RPNQ 0007). Plates were read on a Packard Top Count NXT after >1 hr incubation at room temperature.
Modified HCV NS5B RdRp enzyme assay. A modified enzyme assay was performed essentially as described for the standard enzyme assay except for the following: The biotinylated oligo dT12 primer was precaptured on streptavidin-coated SPA beads by mixing primer and beads in assay buffer and incubating at room temperature for one hour. Unbound primer was removed after centrifugation. The primer-bound beads were resuspended in 20 mM Hepes buffer, pH 7.5 and used in the assay at final concentrations of 20 nM primer and 0.67 μg/μl beads. Order of addition in the assay: enzyme (14 nM) was added to diluted compound followed by the addition of a mixture of template (0.2 nM), 3H-UTP (0.6 μCi, 0.29 μM), and primer-bound beads, to initiate the reaction; concentrations given are final. Reactions were allowed to proceed for 4 hours at 30° C.
IC50 values for compounds were determined using seven different [I]. […]

HCV replicon cells = assay: HCV replicon assay (FRET or luciferase readout); assay type: cell-based; details: Table 1
Excerpt: FRET Assay Preparation. To perform the HCV FRET screening assay, 96-well cell culture plates were used. The FRET peptide (Anaspec, Inc.) (Taliani et al., Anal. Biochem. 1996, 240, 60-67) contains a fluorescence donor, EDANS, near one end of the peptide and an acceptor, DABCYL, near the other end. The fluorescence of the peptide is quenched by […] resonance energy transfer (RET) between the donor and the acceptor, but as the NS3 protease cleaves the peptide the products are released from RET quenching and the fluorescence of the donor becomes apparent. The assay reagent was made as follows: 5× cell Luciferase cell culture lysis reagent from Promega (#E153A) diluted to 1× with dH2O, NaCl added to 150 mM final, the FRET peptide diluted to 20 μM final from a 2 mM stock.
To prepare plates, HCV replicon cells, with or without a Renilla luciferase reporter gene, were trypsinized and placed into each well of a 96-well plate with titrated test compounds added in columns 3 through 12; columns 1 and 2 contained a control compound (HCV protease inhibitor), and the bottom row contained cells without compound. The plates were then placed in a CO2 incubator at 37° C.
Assays. Subsequent to addition of the test compounds described above (FRET Assay Preparation), at various times the plate was removed and Alamar blue solution (Trek Diagnostics, #00-100) was added per well as a measure of cellular toxicity. After reading in a Cytoflour 4000 instrument (PE Biosystems), plates were rinsed with PBS and then used for FRET assay by the addition of 30 ul of the FRET peptide assay reagent described above (FRET Assay Preparation) per well. The plate was then placed into the Cytoflour 4000 instrument which had been set to 340 excite/490 emission, automatic mode for 20 cycles and the plate read in a kinetic mode. Typically, the signal to noise using an endpoint analysis after the reads was at least three-fold. Alternatively, after Alamar blue reading, plates were rinsed with PBS, 50 ul of DMEM (high glucose) without phenol red was added and plates were then used for luciferase assay using the Promega Dual-Glo Luciferase Assay System.
Compound analysis was determined by quantification of the relative HCV replicon inhibition and the relative cytotoxicity values. To calculate cytoxicity values, the average Alamar Blue fluorescence signals from the control wells were set as 100% non-toxic. The individual signals in each of the compound test wells were then divided by the average control signal and multiplied by 100% to determine […]. To calculate the HCV replicon inhibition values, an average background value was obtained from the two wells containing the highest amount of HCV protease inhibitor at the end of the assay period. These numbers were similar to those obtained from naïve Huh-7 cells.
The background numbers were then subtracted from the average signal obtained from the control wells and this number was used as 100% activity. The individual signals in each of the compound test wells were then divided by the averaged control values after background subtraction and multiplied by 100% to determine percent activity. EC50 values for a protease inhibitor titration were calculated as the concentration which caused a 50% reduction in FRET or luciferase activity. The two numbers generated for the compound plate, percent cytoxicity and percent activity were used to determine compounds of interest for further analysis.

CNC(=O)c1c(-c2ccc(F)cc2)nn2ccc(-c3cccc(C(=O)NC4(c5ccccc5)CCC4)c3)cc12
IC50 [1]: 2 to 250 nM | EC50 (HCV replicon cells; Hepatitis C virus): 2 to 250 nM

CNC(=O)c1c(-c2ccc(F)cc2)nn2ccc(-c3cccc(C(=O)NC4(c5ccccc5)CC4)c3)cc12
IC50 [1]: 2 to 250 nM | EC50 (HCV replicon cells; Hepatitis C virus): 2 to 250 nM

CNC(=O)c1c(-c2ccc(F)cc2)nn2cc(N(CCO)S(C)(=O)=O)c(-c3cc(C(=O)NC4(c5ccccc5)CC4)ccc3C)cc12
IC50 [1]: 2 to 250 nM

CNC(=O)c1c(-c2ccc(F)cc2)nn2cc(N(CCO)S(C)(=O)=O)c(-c3cc(C(=O)NCC(C)C)ccc3Cl)cc12
IC50 [1]: 2 to 250 nM | EC50 (HCV replicon cells; Hepatitis C virus): 250 to 1000 nM

CNC(=O)c1c(-c2ccc(F)cc2)nn2cc(N(CCO)S(C)(=O)=O)c(C3CC3)cc12
IC50 [1]: 2 to 250 nM | EC50 (HCV replicon cells; Hepatitis C virus): 1000 to 10000 nM

CNC(=O)c1c(-c2ccc(F)cc2)nn2cc(N(CCOC)S(C)(=O)=O)c(-c3cccc(C(=O)NC(C)(C)c4ccccc4)c3)cc12
IC50 [1]: 2 to 250 nM | EC50 (HCV replicon cells; Hepatitis C virus): 2 to 250 nM

CNC(=O)c1c(-c2ccc(F)cc2)nn2ccc(-n3cc(C(=O)NC(C)(C)c4ccccc4)ccc3=O)cc12
IC50 [1]: 2 to 250 nM | EC50 (HCV replicon cells; Hepatitis C virus): 250 to 1000 nM

CNC(=O)c1c(-c2ccc(F)cc2)oc2ncc(-c3cccc(C(=O)NC(C)(C)c4ccccc4)c3)cc12
IC50 [1]: 2 to 250 nM | EC50 (HCV replicon cells; Hepatitis C virus): 2 to 250 nM

CNC(=O)c1c(-c2ccc(F)cc2)nc2ccc(-c3cc(C(=O)NC(C)(C)c4ccccc4)ccc3OC)cn12
IC50 [1]: 2 to 250 nM | EC50 (HCV replicon cells; Hepatitis C virus): 2 to 250 nM

CNC(=O)c1c(-c2ccc(F)cc2)nc2ccc(-c3cc(C(=O)NC4(c5ccccn5)CC4)ccc3C)cn12
IC50 [1]: 2 to 250 nM | EC50 (HCV replicon cells; Hepatitis C virus): 2 to 250 nM

CNC(=O)c1c(-c2ccc(F)cc2)oc2ncc(-c3cccc(C(=O)NC4(c5ccccc5)CC4)c3)cc12
IC50 [1]: 2 to 250 nM | EC50 (HCV replicon cells; Hepatitis C virus): 2 to 250 nM

CNC(=O)c1c(-c2ccc(F)cc2)nc2ccc(-c3cc(C(=O)NC(C)(C)c4ccccc4)ccc3Cl)cn12
IC50 [1]: 2 to 250 nM | EC50 (HCV replicon cells; Hepatitis C virus): 2 to 250 nM

CNC(=O)c1c(-c2ccc(F)cc2)nc2ccc(-c3cc(C(=O)NC(C)(C)c4ccccc4)ccc3C)cn12
IC50 [1]: 2 to 250 nM | EC50 (HCV replicon cells; Hepatitis C virus): 2 to 250 nM

CNC(=O)c1c(-c2ccc(F)cc2)nc2ccc(-c3ccc(-c4cccnc4)c(C(=O)NCC(C)C)c3)cn12
EC50 (HCV replicon cells; Hepatitis C virus): 250 to 1000 nM

CNC(=O)c1c(-c2ccc(F)cc2)nn2ccc(-c3cc(F)cc(C(=O)NC4(c5ccccc5)CC4)c3)c(F)c12
EC50 (HCV replicon cells; Hepatitis C virus): > 10000 nM

CNC(=O)c1c(-c2ccc(F)cc2)nn2ccc(-c3cc(F)cc(C(=O)NC4(c5ccccn5)CC4)c3)c(F)c12
EC50 (HCV replicon cells; Hepatitis C virus): 1000 to 10000 nM

CNC(=O)c1c(-c2ccc(F)cc2)nn2ccc(-c3cc(C(=O)NC4(c5ccccn5)CC4)cc(F)c3C)c(F)c12
EC50 (HCV replicon cells; Hepatitis C virus): 2 to 250 nM

CNC(=O)c1c(-c2ccc(F)cc2)nn2ccc(-c3cc(C(=O)NC4(c5nc(C)no5)CC4)cc(F)c3C)c(F)c12
EC50 (HCV replicon cells; Hepatitis C virus): 2 to 250 nM

CNC(=O)c1c(-c2ccc(F)cc2)nn2ccc(-c3cc(C(=O)NC4(c5nnc(-c6ccccc6)[nH]5)CC4)c(OC)cc3C)c(F)c12
EC50 (HCV replicon cells; Hepatitis C virus): 2 to 250 nM

CNC(=O)c1c(-c2ccc(F)cc2)nn2ccc(-c3cc(C(=O)NC4(c5ccccc5)CC4)c(OC)nc3C)c(F)c12
EC50 (HCV replicon cells; Hepatitis C virus): 2 to 250 nM

CNC(=O)c1c(-c2ccc(F)cc2)nn2ccc(-c3cc(C(=O)NC4(c5ccccn5)CC4)c(OC)nc3C)c(F)c12
EC50 (HCV replicon cells; Hepatitis C virus): 2 to 250 nM

CNC(=O)c1c(-c2ccc(F)cc2)nn2ccc(-c3cc(C(=O)NC4(c5ccccc5)CC4)c(OC(F)F)nc3C)c(F)c12
EC50 (HCV replicon cells; Hepatitis C virus): 2 to 250 nM

CNC(=O)c1c(-c2ccc(F)cc2)nn2ccc(-c3cc(C(=O)NC4(c5ccccn5)CC4)c(OC(F)F)nc3C)c(F)c12
EC50 (HCV replicon cells; Hepatitis C virus): 2 to 250 nM

CNC(=O)c1c(-c2ccc(F)cc2)nn2ccc(-c3cc(C(=O)NC4(c5ncccn5)CC4)c(OCC4CCOCC4)nc3C)c(F)c12
EC50 (HCV replicon cells; Hepatitis C virus): 2 to 250 nM

CNC(=O)c1c(-c2ccc(F)cc2)nn2ccc(-c3cc(C(=O)NC4(c5ccccn5)CC4)c(OCC4CCOCC4)nc3C)c(F)c12
EC50 (HCV replicon cells; Hepatitis C virus): 2 to 250 nM

CNC(=O)c1c(-c2ccc(F)cc2)nn2ccc(-c3cc(C(=O)NC4(c5cc(F)ccn5)CC4)c(OC)nc3C)c(F)c12
EC50 (HCV replicon cells; Hepatitis C virus): 2 to 250 nM

CNC(=O)c1c(-c2ccc(F)cc2)nn2ccc(-c3cc(C(=O)NC4(c5cnccn5)CC4)c(OC)cc3C)c(F)c12
EC50 (HCV replicon cells; Hepatitis C virus): 2 to 250 nM

CNC(=O)c1c(-c2ccc(F)cc2)nc2ccc(-c3ccc(-c4ccccc4Cl)c(C(=O)NCC(C)C)c3)cn12 [drawing 121]
EC50 (HCV replicon cells; Hepatitis C virus): 2 to 250 nM

CNC(=O)c1c(-c2ccc(F)cc2)nc2ccc(-c3cc(C(=O)NC4(c5ccccn5)CC4)c(OC)cc3Cl)cn12 [drawing 124]
EC50 (HCV replicon cells; Hepatitis C virus): 250 to 1000 nM

CNC(=O)c1c(-c2ccc(F)cc2)nn2ccc(-c3cc(C(=O)NC4(c5ccccc5)CC4)cc(F)c3C)c(F)c12 [drawing 138]
EC50 (HCV replicon cells; Hepatitis C virus): 2 to 250 nM

CNC(=O)c1c(-c2ccc(F)cc2)nc2ccc(C3CC3C(=O)NC3(c4ccccn4)CC3)cn12 (stereo not shown) [drawing 160]
EC50 (HCV replicon cells): > 10000 nM
